Values of other authors in patent US20180153872A1, “HETEROARYL CARBONITRILES FOR THE TREATMENT OF DISEASE” (OPKO Health, Inc., priority 2015, published 2018).

Biological target: NK1 receptor (Homo sapiens, UniProt P25103)
Conditions: Table I compounds; cited from earlier work

Chain of NK1 receptor (P25103 whole entry, species assumed): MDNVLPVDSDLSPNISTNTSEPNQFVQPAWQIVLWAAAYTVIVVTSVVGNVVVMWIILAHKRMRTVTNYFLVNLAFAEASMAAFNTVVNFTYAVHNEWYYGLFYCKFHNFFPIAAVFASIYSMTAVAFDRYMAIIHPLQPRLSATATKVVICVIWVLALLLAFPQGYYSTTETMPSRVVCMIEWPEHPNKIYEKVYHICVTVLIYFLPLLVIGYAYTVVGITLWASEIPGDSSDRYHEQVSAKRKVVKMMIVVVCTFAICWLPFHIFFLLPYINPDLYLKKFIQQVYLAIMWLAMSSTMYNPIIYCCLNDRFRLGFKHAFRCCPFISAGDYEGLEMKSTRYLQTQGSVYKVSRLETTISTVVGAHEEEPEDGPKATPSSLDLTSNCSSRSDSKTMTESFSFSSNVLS

| Structure (SMILES) | Ki |
| --- | --- |
| C[C@@H](OC[C@@]1(c2ccccc2)CCC(CO)(n2cn[nH]c2=O)CN1)c1cc(C(F)(F)F)cc(C(F)(F)F)c1 (stereo partly drawn) [Compound 23] | 0.12 nM |
| C[C@@H](OC[C@@]1(c2ccccc2)CCC(C#N)(N2CCC2=O)CN1)c1cc(C(F)(F)F)cc(C(F)(F)F)c1 (stereo partly drawn) [Compound 9] | 0.18 nM |
| C[C@@H](OC[C@@]1(c2ccccc2)CCC(C#N)(N2CCOC2=O)CN1)c1cc(C(F)(F)F)cc(C(F)(F)F)c1 (stereo partly drawn) [Compound 2] | 0.12 nM |
| CCC(=O)C1(n2cn[nH]c2=O)CC[C@@](CO[C@H](C)c2cc(C(F)(F)F)cc(C(F)(F)F)c2)(c2ccccc2)NC1 (stereo partly drawn) [Compound 19] | 0.1 nM |
| CC(=NO)C1(n2cn[nH]c2=O)CCC(COC(C)c2cc(C(F)(F)F)cc(C(F)(F)F)c2)(c2ccccc2)NC1 (stereo not drawn) [Compound 54] | 0.12 nM |
| C[C@@H](OC[C@@]1(c2ccccc2)CCC(C(N)=O)(n2cnnc2)CN1)c1cc(C(F)(F)F)cc(C(F)(F)F)c1 (stereo partly drawn) [Compound 10] | 0.1 nM |
| C[C@@H](OC[C@@]1(c2ccccc2)CC[C@](CNS(C)(=O)=O)(n2cn[nH]c2=O)CN1)c1cc(C(F)(F)F)cc(C(F)(F)F)c1 [Compound 15] | 0.13 nM |
| C[C@@H](OC[C@@]1(c2ccccc2)CCC(CO)(n2cnnc2)CN1)c1cc(C(F)(F)F)cc(C(F)(F)F)c1 (stereo partly drawn) [Compound 12] | 0.05 nM |

Tested on: pruritus
Conditions: several patients with pruritic drug reactions to antineoplastic drugs; cited from earlier work

| Structure (SMILES) | pruritus on the visual analogue scale (VAS) |
| --- | --- |
| C[C@@H](O[C@H]1OCCN(Cc2n[nH]c(=O)[nH]2)[C@H]1c1ccc(F)cc1)c1cc(C(F)(F)F)cc(C(F)(F)F)c1 [aprepitant] | decrease in pruritus on the visual analogue scale |
